# Measured values as given in patent US20180147175A1, “COMPOSITIONS AND METHODS FOR TREATMENT OF MOVEMENT DISORDERS” (ULTRAGENYX PHARMACEUTICAL INC., priority 2015, published 2018).
# “Also recorded” adds a separate entry of the source.
# Columns and labels:
# [1] = tested on: brain response to cortical activation; assay: Functional 31P-NMR spectroscopy (f-MRS) of brain, Pi/PCr ratio during visual activation; format: in vivo, human
# Description: Functional ^31P-NMR spectroscopy (f-MRS) was performed at 3 T at the end of each study phase in patients >15 years old (n=5). Data were collected for 4 minutes at rest, 8 minutes during visual activation, 8 minutes after stimulation, and analyzed as described (Adanyeguh et al., 2015, Neurology 84: 490-495 and Mochel et al., 2012, Mov Disord. 27: 907-910). The ratio of Pi/PCr was calculated to determine the brain response to cortical activation.
# (§1) Paired t-tests were used for plasma analyses before and after treatment. For clinical parameters, Friedman tests were used to test the global hypothesis that all study phases were equal. If significant, Wilcoxon signed-rank tests were applied for pair-wise phase comparisons with an alpha of 0.05. For the Pi/PCr ratio, repeated measures ANOVA were used to test the global hypothesis that all time points—rest, activation and recovery—were equal. If significant, paired t-tests were applied for pair-wise time comparisons with an alpha of 0.05.
# [2] = tested on: GLUT1-DS patients with non-epileptic paroxysmal manifestations; assay: Open-label pilot study in GLUT1-DS patients: paroxysmal events diary and clinical scales; format: in vivo, human
# Source text: This example describes an open-label pilot study with four phases of 2 months each (baseline, treatment […], and resumption of treatment) in eight GLUT1-DS patients (7-47 years old) with non-epileptic paroxysmal manifestations.
# Participants were enrolled in an interventional clinical protocol. Four children and four adults with GLUT1-DS were enrolled. […] All patients were on a normal diet prior to their enrollment. As noted above, the study was divided into four phases of 2 months each (baseline, treatment, withdrawal, and resumption of treatment). A trained dietitian determined patients' caloric intake and adapted the daily menus so the diets remained isocaloric when triheptanoin was introduced.
# A comprehensive diary was kept for each patient to record all motor and non-motor paroxysmal events—including dystonia, tremor, speech disorder, stiffness, paresis, headaches, confusion, and lethargy. At each visit, patients were evaluated with a six minute walk test (6MWT), a nine-hole pegboard test (NHPT), the clinical global impression-improvement scale (CGI-I) and a fatigue severity scale (KFFS or visual analogue scale for patients <15 years old). Blood samples were collected after an overnight fast for standard analyses, and the measurement of plasma C3-carnitine and C5-ketone bodies (Mochel et al., 2005, Molecular Genetics and Metabolism 84: 305-312).
# as §1
smiles,measurement,setting,value
CCCCCCC(=O)OCC(COC(=O)CCCCCC)OC(=O)CCCCCC [triheptanoin],f-MRS bioenergetics profile,"[1]; after 2 months on triheptanoin, ANOVA p=0.014, patients >15 years, n=5",corrected; also recorded: normalized
same,f-MRS profile,[1]; after treatment withdrawal,came back abnormal
same,tolerability,"[2]; 1 g/kg/day oral, all patients",well tolerated
same,paroxysmal manifestations,[2]; after treatment was resumed,dropped significantly
same,non-epileptic paroxysmal manifestations (FIG. 1),"[2]; treated 2 months and on resumption, p<0.05",significant reduction
same,average number of dystonic events,"[2]; treated 2 months, 1 g/kg/day oral, n=6, baseline 16 (±19, 1-54)",2
same,average number of paroxysmal manifestations,"[2]; treated 2 months, 1 g/kg/day oral, n=6, baseline average 31 (±28, 10-85), p=0.028","3 (±3, 0-7)"
same,performance during the 6MWT and NHPT,[2]; treatment phase,unchanged
same,CGI-I scale,"[2]; treatment phase, all patients",much improved
same,fatigue score,"[2]; treatment phase, did not reach significance",tended to improve
same,fatigue score,[2]; withdrawal phase,worsened
same,average number of dystonic events,"[2]; withdrawal phase, 2 months",13
same,average number of paroxysmal manifestations,"[2]; withdrawal phase, 2 months, p=0.043",24
same,CGI-I scale,"[2]; withdrawal phase, five out of six patients",much worse
